Reference: US10202372B2, “Trisubstituted pyrido[2,3-D]pyrimidines, methods for preparing same and therapeutic uses thereof” (CENTRE NATIONAL DE LA RECHERCHE SCIENTIFIQUE (C.N.R.S), priority 2012, dated 2019)

Columns and labels:
[1] = target: PI3Kα (Homo sapiens, UniProt P42336); test: PI3Kα kinase activity, Adapta TR-FRET ADP detection; assay type: biochemical; settings: purified p110α/p85α heterodimer, triplicate; read-out: Kinases IC50 PI3Kα
Experimental: (§1) The activity of the PI3Kα kinase was evaluated by using a purified heterodimer (reference: PV4788 from Invitrogen) consisting of the α catalytic p110 subunit (PIK3CA) and the α regulation p85 subunit (PIK3R1). The assay of the kinase with the kit Adapta™ (reference: PV5099 from Invitrogen) is an enzymatic test based on the detection of ADP, produced during the reaction, by the fluorescence technique TR-FRET. It took place in a 384-well plate and was able to be divided into two phases: an enzymatic reaction phase, and a phase for detecting the ADP level.
(§2) During the enzymatic reaction phase, the following components were mixed in 10 μL of a same well: 2.5 μL of each dilution in series of inhibitors taken up in DMSO and then diluted to 1/25 in the reaction buffer (250 mM HEPES pH 7.5, 500 mM NaCl, 0.15 CHAPS, 5 mM EGTA, 15 mM MgCl2 and 1 mM DTT, ref.: PV5101 from Invitrogen), 2.5 μL of a solution containing PI3K at the optimum concentration (concentration defined according to the optimization step described in the operating procedure of the kit) diluted in the same reaction buffer, and finally, 5 μL of a solution containing 20 μM ATP and 100 μM PIP2 diluted in the reaction buffer. For each inhibitor concentration, the reaction was conducted in three copies (triplicate). The reaction was then incubated for 60 min at room temperature without any stirring in darkness.
(§3) During the phase for detecting ADP, 5 μL of a detection solution containing an anti-ADP antibody labeled with europium (6 nM), a tracer of the Alexa Fluor® 647 type coupled with ADP (30 nM), and EDTA (30 mM, for stopping the kinase reaction) were diluted in the dilution buffer (reference: PV3574 from Invitrogen). After 30 min of incubation at room temperature with stirring (40 rpm) in darkness, the 384-well plates were read in a plate reader Victor V configured for HTRF (Perkin Elmer). The excitation was produced at 340 nm and emission was measured at 665 nm and 615 nm. The inhibition curve was then plotted according to the emission ratio at 665 nm/615 nm versus the inhibitor concentration.
(§4) In order to obtain a linear response of the signal, a titration curve ATP-ADP, corresponding to the conversion % of ATP into ADP, was achieved by varying both of these species while keeping [ADP]+[ATP]=10 μM. The emission ratio at 665 nm/615 nm resulting from this (Y) was plotted versus the conversion % of ATP into ADP (X). The data of this curve were formatted according to a model with three hyperbolic parameters from the following equation: Y=C+A*(1−(X/(B+X))).
(§5) The software package GraphPad™ Prism® thus allows calculation of the parameters A, B and C. A conversion % corresponds to an emission ratio 665 nm/615 nm, this percentage is calculated by using the following equation: Conversion %=B*(C+A−Ratio)/(Ratio−C)
(§6) The three parameters A, B and C having been defined by the preceding equation, the conversion % was therefore able to be plotted versus the inhibitor concentration. The amount of inhibitor required for causing a 50% variation in the % conversion of ATP into ADP corresponds to the IC50 value of the inhibitor.

[2] = target: PI3Kγ (Homo sapiens, UniProt P48736); test: PI3Kγ kinase activity, Adapta TR-FRET ADP detection; assay type: biochemical; settings: p110γ catalytic subunit; read-out: Kinases IC50 PI3Kγ
Experimental: as §1, §2, §3, §4, §5, §6
(§7) The activity of the kinase PI3Kγγ (PV4786 from Invitrogen) was evaluated on the p110γγ catalytic subunit (PI3KCG) and that of the kinase PI3Kδδ on the purified heterodimer (PV5273) respectively consisting of the δδ catalytic p110 subunit (PIK3CD) and the α regulation p85 subunit (PIK3R1) by following the same procedure.

[3] = target: PI3Kδ (Homo sapiens, UniProt O00329); test: PI3Kδ kinase activity, Adapta TR-FRET ADP detection; assay type: biochemical; settings: purified p110δ/p85α heterodimer; read-out: Kinases IC50 PI3Kδ
Chain of PI3Kδ (O00329 whole entry): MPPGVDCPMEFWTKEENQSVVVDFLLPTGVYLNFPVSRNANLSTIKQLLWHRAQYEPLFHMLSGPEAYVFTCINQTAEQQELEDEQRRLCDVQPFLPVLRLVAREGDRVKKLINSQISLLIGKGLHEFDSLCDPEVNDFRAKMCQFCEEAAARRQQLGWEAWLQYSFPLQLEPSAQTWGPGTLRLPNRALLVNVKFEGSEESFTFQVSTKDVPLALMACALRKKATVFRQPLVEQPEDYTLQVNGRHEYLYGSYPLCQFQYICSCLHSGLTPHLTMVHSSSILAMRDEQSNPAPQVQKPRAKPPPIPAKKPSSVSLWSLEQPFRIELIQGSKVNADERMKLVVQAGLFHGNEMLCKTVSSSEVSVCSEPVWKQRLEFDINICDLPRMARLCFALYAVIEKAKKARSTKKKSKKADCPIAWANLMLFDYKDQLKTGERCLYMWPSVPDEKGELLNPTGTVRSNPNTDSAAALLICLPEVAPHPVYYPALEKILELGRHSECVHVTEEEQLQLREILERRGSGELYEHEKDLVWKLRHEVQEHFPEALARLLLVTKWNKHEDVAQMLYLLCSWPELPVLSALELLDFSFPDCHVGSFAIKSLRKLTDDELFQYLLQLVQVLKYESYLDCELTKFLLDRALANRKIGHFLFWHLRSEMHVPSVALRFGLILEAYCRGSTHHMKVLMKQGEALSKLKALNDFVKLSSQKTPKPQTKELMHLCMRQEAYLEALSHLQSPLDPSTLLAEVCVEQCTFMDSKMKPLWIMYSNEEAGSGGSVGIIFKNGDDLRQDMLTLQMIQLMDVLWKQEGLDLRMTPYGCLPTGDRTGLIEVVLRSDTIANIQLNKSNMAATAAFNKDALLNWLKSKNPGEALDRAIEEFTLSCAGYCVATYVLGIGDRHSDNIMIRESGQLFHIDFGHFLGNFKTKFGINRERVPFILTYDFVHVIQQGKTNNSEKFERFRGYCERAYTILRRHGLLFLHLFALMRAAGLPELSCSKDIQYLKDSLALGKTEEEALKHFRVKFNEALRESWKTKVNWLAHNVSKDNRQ
Chain of PI3Kδ (P27986 whole entry partner): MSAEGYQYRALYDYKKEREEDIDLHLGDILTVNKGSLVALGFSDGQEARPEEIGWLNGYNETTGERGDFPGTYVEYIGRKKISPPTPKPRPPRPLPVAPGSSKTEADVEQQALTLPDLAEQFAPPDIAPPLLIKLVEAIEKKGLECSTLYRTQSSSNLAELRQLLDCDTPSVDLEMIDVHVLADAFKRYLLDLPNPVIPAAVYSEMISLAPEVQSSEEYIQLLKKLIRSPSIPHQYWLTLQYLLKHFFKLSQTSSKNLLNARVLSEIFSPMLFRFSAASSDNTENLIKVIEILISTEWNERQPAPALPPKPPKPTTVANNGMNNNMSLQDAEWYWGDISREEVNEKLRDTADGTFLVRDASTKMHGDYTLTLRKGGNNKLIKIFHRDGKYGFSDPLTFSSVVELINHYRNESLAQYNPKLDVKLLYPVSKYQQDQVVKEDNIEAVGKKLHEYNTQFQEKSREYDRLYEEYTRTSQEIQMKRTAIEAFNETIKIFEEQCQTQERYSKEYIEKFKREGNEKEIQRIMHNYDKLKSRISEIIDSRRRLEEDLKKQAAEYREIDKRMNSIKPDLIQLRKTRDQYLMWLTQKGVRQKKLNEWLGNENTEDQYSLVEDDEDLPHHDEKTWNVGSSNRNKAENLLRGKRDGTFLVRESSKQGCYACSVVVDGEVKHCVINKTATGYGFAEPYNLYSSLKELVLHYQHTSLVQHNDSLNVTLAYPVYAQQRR
Experimental: as §1, §2, §3, §4, §5, §6, §7

[4] = target: mTOR (Homo sapiens, UniProt P42345); test: mTOR kinase activity, LANCE Ultra TR-FRET; assay type: biochemical; settings: truncated mTOR protein, triplicate; read-out: Kinases IC50 mTOR
Chain of mTOR (P42345 1360-2549): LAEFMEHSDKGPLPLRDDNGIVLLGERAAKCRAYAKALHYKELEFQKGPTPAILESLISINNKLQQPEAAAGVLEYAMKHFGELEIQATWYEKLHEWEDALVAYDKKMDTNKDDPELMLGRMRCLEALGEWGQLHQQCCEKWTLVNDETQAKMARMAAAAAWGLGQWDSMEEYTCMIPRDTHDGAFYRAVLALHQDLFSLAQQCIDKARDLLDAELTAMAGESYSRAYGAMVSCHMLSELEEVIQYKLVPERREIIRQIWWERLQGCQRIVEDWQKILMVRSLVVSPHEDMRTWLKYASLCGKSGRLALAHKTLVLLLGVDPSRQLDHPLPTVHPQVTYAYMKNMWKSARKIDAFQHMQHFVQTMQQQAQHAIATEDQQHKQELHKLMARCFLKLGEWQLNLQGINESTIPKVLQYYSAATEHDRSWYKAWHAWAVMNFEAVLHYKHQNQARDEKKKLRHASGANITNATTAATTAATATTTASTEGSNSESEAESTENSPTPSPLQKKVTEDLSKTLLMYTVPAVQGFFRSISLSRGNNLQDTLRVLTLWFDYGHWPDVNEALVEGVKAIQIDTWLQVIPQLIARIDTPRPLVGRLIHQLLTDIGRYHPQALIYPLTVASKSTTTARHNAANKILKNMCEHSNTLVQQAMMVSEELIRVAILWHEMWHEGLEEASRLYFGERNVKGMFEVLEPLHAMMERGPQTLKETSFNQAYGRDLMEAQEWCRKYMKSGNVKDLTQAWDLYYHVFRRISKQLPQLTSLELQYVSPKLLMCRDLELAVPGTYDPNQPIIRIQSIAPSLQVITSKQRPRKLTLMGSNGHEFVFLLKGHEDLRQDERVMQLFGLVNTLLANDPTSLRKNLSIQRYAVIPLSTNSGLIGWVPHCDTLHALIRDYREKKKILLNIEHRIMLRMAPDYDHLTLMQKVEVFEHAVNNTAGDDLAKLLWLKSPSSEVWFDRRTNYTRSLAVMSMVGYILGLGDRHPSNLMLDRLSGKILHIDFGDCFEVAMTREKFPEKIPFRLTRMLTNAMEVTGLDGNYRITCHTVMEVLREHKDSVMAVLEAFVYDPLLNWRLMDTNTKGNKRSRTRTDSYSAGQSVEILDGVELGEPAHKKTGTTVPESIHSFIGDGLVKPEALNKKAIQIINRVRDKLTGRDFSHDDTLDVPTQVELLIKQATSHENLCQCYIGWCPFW
Experimental: The activity of the mTOR kinase was evaluated by using a purified truncated protein of the amino acids 1-1359 (reference: PV4753 from Invitrogen). The assay of the activity of the enzyme was carried out with the kit LANCE® Ultra which is an enzymatic test based on the detection of a phosphorylated peptide produced during the reaction, by using the fluorescence technique TR-FRET. It took place in a 384-well plate and was able to be divided into two phases: an enzymatic reaction phase and a phase for detecting the phosphorylated peptide.
During the enzymatic reaction phase, the following components were mixed in 10 μL of a same well: 5 μL of each dilution in series of inhibitors taken up in DMSO and then diluted to 1/25 in the reaction buffer (50 mM HEPES pH 7.5, 0.1% Tween-20, 1 mM EGTA, 10 mM MnCl2, 3 mM MgCl2 and 2 mM of DTT), 2.5 μL of a solution containing mTOR at the optimum concentration (concentration defined according to the optimization step described in the operating procedure of the kit) diluted in the same reaction buffer, and finally 2.5 μL of a solution containing 40 μM of ATP and 200 μM non-phosphorylated peptide diluted in the reaction buffer. For each inhibitor concentration, the reaction was conducted in three copies (triplicate). The reaction was then incubated for 120 min at room temperature without any stirring in darkness.
During the phase for detecting the phosphorylated peptide, 5 μL of an EDTA solution (32 mM) diluted in the dilution buffer (ref.: CR97-100 from Perkin Elmer) were injected into each well. After 5 min of incubation with stirring, 5 μL of a phosphorylated anti-peptide antibody solution labeled with europium (8 nM) and diluted in the same dilution buffer was added into each well. After 60 min of incubation at room temperature with stirring (40 rpm) in darkness, the 384-well plates were read in a plate reader Victor V configured for HTRF (Perkin Elmer). […] The inhibition curve was then plotted according to the fluorescence intensity value at 665 nm versus the inhibitor concentration.
The amount of inhibitor required for causing a 50% variation in the intensity of the signal corresponds to the IC50 value of the inhibitor.

[5] = system: HUH7; test: Toxicity test on cells, HUH7; assay type: cell-based; settings: Homo sapiens, Huh-7; 48 hours of treatment, Hoechst nuclei staining
Experimental: (§8) The compounds according to the invention were also tested on the cell lines HuH7, CaCo-2, HCT116, PC3, NCl, HacaT and Fibroblasts.
(§9) Operating Procedure: The cells were cultivated according to the ECACC recommendations. The toxicity test of the compounds on these cells was conducted as follows: 4×10^3 cells/well were sown in 96 wells. 24 hours after sowing the cells, the cells were exposed to increased concentrations of the compounds (0.1 μM-0.3 μM-0.9 μM-2.7 μM-8.3 μM-25 μM). After 48 hours of treatment, the cells were washed in PBS and bound in a cold ethanol/acetic acid (90/5) mixture for 20 minutes. Next, the nuclei were coloured with […] (Sigma). The acquisition of images and the analysis was carried out by means of a reader Cellomics ArrayScan VTI/HCS (Thermo Scientific).

[6] = system: CaCo2; test: Toxicity test on cells, CaCo2; assay type: cell-based; settings: Homo sapiens, Caco-2; 48 hours of treatment, Hoechst nuclei staining
Experimental: as §8, §9

[7] = system: MDA; test: Toxicity test on cells, MDA; assay type: cell-based; settings: 48 hours of treatment, Hoechst nuclei staining
Experimental: [The procedure below names another cell line; the source lists this cell line under the same test.] as §8, §9

[8] = system: HCT116; test: Toxicity test on cells, HCT116; assay type: cell-based; settings: Homo sapiens, HCT-116; 48 hours of treatment, Hoechst nuclei staining
Experimental: as §8, §9

[9] = system: PC3; test: Toxicity test on cells, PC3; assay type: cell-based; settings: Homo sapiens, PC-3; 48 hours of treatment, Hoechst nuclei staining
Experimental: as §8, §9

[10] = system: NCl; test: Toxicity test on cells, NCl; assay type: cell-based; settings: 48 hours of treatment, Hoechst nuclei staining
Experimental: as §8, §9

[11] = system: Fibroblasts; test: Toxicity test on cells, Fibroblasts; assay type: cell-based; settings: Fibroblast; 48 hours of treatment, Hoechst nuclei staining
Experimental: as §8, §9

[12] = system: HacaT; test: Toxicity test on cells, HacaT; assay type: cell-based; settings: Homo sapiens, 48 hours of treatment, Hoechst nuclei staining
Experimental: as §8, §9

Chain of PI3Kα (P42336 whole entry): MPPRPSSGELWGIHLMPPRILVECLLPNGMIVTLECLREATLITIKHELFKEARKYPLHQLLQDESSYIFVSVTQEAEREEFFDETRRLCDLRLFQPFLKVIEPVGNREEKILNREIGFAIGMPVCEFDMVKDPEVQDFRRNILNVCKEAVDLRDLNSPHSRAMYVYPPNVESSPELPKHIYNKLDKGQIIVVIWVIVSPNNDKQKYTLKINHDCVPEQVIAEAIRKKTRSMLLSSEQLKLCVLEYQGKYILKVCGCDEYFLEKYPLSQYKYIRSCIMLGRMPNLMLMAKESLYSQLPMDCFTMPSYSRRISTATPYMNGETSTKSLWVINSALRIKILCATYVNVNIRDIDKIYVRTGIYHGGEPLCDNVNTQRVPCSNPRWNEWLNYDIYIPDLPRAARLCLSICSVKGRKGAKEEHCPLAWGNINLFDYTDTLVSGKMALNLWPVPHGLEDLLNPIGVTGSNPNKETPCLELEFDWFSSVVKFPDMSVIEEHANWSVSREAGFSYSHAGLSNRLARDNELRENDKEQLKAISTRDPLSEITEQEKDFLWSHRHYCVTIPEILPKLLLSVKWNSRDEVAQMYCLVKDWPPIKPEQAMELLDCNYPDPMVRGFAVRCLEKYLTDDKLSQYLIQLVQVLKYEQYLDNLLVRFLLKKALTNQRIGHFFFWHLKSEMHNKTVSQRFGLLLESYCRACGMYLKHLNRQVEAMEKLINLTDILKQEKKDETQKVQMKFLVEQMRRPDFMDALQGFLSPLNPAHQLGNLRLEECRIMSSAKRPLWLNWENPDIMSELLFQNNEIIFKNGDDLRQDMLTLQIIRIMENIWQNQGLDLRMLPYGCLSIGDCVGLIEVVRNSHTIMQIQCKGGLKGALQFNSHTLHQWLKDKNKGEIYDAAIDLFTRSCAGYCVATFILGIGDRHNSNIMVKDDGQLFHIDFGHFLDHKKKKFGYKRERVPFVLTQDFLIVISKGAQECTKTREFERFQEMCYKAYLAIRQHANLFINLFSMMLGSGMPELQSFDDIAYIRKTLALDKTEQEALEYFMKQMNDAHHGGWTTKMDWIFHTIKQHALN
Chain of PI3Kα (P27986 whole entry partner): as the sequence (P27986 whole entry partner) above

IC50 [1]	IC50 [2]	IC50 [3]	IC50 [4]	Structure (SMILES)	IC50 [5]	IC50 [6]	IC50 [7]	IC50 [8]	IC50 [9]	IC50 [10]	IC50 [11]	IC50 [12]
98 nM	196 nM	11 nM	109 nM	C=Cc1cnc2c(N3CCOCC3)nc(-c3cccc(O)c3)nc2c1 [Compound 14, 3-(4-morpholino-7-vinylpyrido[3,2-d]pyrimidin-2-yl)phenol]	20000 nM	1500 nM	20000 nM	5000 nM	20000 nM	20000 nM	> 25000 nM	
				C=Cc1cnc2c(N3CCOCC3)nc(-c3cccc(CO)c3)nc2c1 [Compound 17, (3-(4-Morpholino-7-vinylpyrido[3,2-d]pyrimidin-2-yl)phenyl)methanol]	15000 nM	5000 nM	> 25000 nM	6000 nM	25000 nM	> 25000 nM	> 25000 nM	4000 nM
47 nM	> 50000 nM	10 nM	71 nM	O=Cc1cnc2c(N3CCOCC3)nc(-c3cccc(O)c3)nc2c1 [Compound 20, 2-(3-hydroxyphenyl)-4-morpholinopyrido[3,2-d]pyrimidine-7-carbaldehyde]	20000 nM	4000 nM	20000 nM	6000 nM	25000 nM	> 25000 nM	> 25000 nM	
82 nM	344 nM	41 nM	460 nM	OCC(O)c1cnc2c(N3CCOCC3)nc(-c3cccc(O)c3)nc2c1 (stereo not drawn) [Compound 22, 1-(2-(3-hydroxyphenyl)-4-morpholinopyrido[3,2-d]pyrimidin-7-yl)ethane-1,2-diol]	> 25000 nM	4000 nM	10000 nM	5000 nM	4000 nM	> 25000 nM	> 25000 nM	
366 nM	22 nM	126 nM	350 nM	OCc1cnc2c(N3CCOCC3)nc(-c3cccc(O)c3)nc2c1 [Compound 34, 3-(7-(hydroxymethyl)-4-morpholinopyrido[3,2-d]pyrimidin-2-yl)phenol]	1000 nM	1500 nM	25000 nM	3000 nM	5000 nM	> 25000 nM	25000 nM	
51 nM	127 nM	340 nM	820 nM	N#CCc1cnc2c(N3CCOCC3)nc(-c3cccc(O)c3)nc2c1 [Compound 41, 2-(2-(3-hydroxyphenyl)-4-morpholinopyrido[3,2-d]pyrimidin-7-yl)acetonitrile]								
10 nM	399 nM	63 nM	135 nM	O=C(O)c1cnc2c(N3CCOCC3)nc(-c3cccc(O)c3)nc2c1 [Compound 42, 2-(3-hydroxyphenyl)-4-morpholinopyrido[3,2-d]pyrimidine-7-carboxylic acid]								
57 nM	563 nM	81 nM	1900 nM	O=CCCc1cnc2c(N3CCOCC3)nc(-c3cccc(O)c3)nc2c1 [Compound 46]								
56 nM				CS(=O)(=O)N1CCN(Cc2cnc3c(N4CCOCC4)nc(-c4cccc(O)c4)nc3c2)CC1 [Compound 55, 3-{7-[(4-methanesulfonylpiperazin-1-yl)methyl]-4-(morpholin-4-yl)pyrido[3,2-d]pyrimidin-2-yl}phenol]								
38 nM				CN(C)Cc1cn(Cc2cnc3c(N4CCOCC4)nc(-c4cccc(O)c4)nc3c2)nn1 [Compound 58, 3-[7-({4-[(dimethylamino)methyl]-1H-1,2,3-triazol-1-yl}methyl)-4-(morpholin-4-yl)pyrido[3,2-d]pyrimidin-2-yl]phenol]								
116 nM				COCOCc1cn(Cc2cnc3c(N4CCOCC4)nc(-c4cccc(O)c4)nc3c2)nn1 [Compound 59, 3-[7-({4-[(methoxymethoxy)methyl]-1H-1,2,3-triazol-1-yl}methyl)-4-(morpholin-4-yl)pyrido[3,2-d]pyrimidin-2-yl]phenol]								
391 nM				Oc1cccc(-c2nc(N3CCOCC3)c3ncc(Cn4cc(CF)nn4)cc3n2)c1 [Compound 61, 3-(7-{[4-(fluoromethyl)-1H-1,2,3-triazol-1-yl]methyl}-4-(morpholin-4-yl)pyrido[3,2-d]pyrimidin-2-yl)phenol]								
18 nM				COCc1cn(Cc2cnc3c(N4CCOCC4)nc(-c4ccc(NC(=O)NCC(F)(F)F)cc4)nc3c2)nn1 [Compound 82, 1-[4-(7-{[4-(methoxymethyl)-1H-1,2,3-triazol-1-yl]methyl}-4-(morpholin-4-yl)pyrido[3,2-d]pyrimidin-2-yl)phenyl]-3-(2,2,2-trifluoroethyl)urea]								
